Columns and labels:
[1] = tested on: Human B cell lymphoma cell line Ramos; assay: Ramos Calcium Influx FLIPR Assay; type: cell-based; conditions: Ramos cells, anti-human IgM 10 μg/mL stimulation, read-out: RAMOS_IC50
Experimental: Ramos Calcium Influx FLIPR Assay
Human B cell lymphoma cell line Ramos was cultivated in RPMI-1640 with 10% Fetal Bovine Serum (Invitrogen). Cells were seeded into assay plate and loaded with calcium dye by adding 30 μl of dye loading buffer according to manufacturer's instruction (Beckton Dickinson Calcium Kit, Cat#80500). The cells were then treated with serial diluted compounds for 30 min before stimulation. Baseline fluorescence was recorded for about 20 seconds followed by stimulation with mouse anti-human IgM (10 μg/mL, clone M2E6, Antibody Solutions Inc.) for Ramos cells, and record of the maximal fluorescent counts in each well. Maximal counts divided by baseline counts, defined as fold change from baseline for each well, was used for IC50 calculation.

[2] = tested on: B cell CD69 up-regulation in human whole blood; assay: B Cell CD69 Up-Regulation Assay in Human Whole Blood; type: cell-based; conditions: anti-human IgM 50 μg/mL for 20 h, CD69hi CD20+ B cells
Experimental: B Cell CD69 Up-Regulation Assay in Human Whole Blood
Human Blood was collected from healthy volunteers into Vacutainers (BD Biosciences, San Jose, Calif.) containing sodium heparin. Test compound was suspended in DMSO and nine half-log serial dilutions were made. The concentration of […] in the assay was 0.5%. 100 μL whole blood was pre-incubated with compound for 30 min and then stimulated with goat F(ab′)2 anti-human IgM (50 μg/mL, Southern Biotech) for 20 h. At the end of the 20 hour incubation, samples were incubated with fluorochrome-conjugated antibodies, PE mouse anti-human CD20 and APC Mouse anti-human CD69 (BD Biosciences), for 30 minutes. Samples were then lysed with Lyse solution (BD) and washed with PBS containing 2% fetal bovine serum (FBS). Fluorescent signals were acquired on flow cytometer LSR II (BD) and data were analyzed by Flow Jo. The percentage of activated (CD69hi) B-cell lymphocytes (CD20+) were determined using un-stimulated (negative control) and stimulated (positive control) wells as reference guidelines. The percentage inhibition was calculated and an IC50 curve was constructed using GraphPad Prism software with sigmoidal curve fitting.

[3] = target: recombinant human SYK360-635 (Spleen Tyrosine Kinase) (Homo sapiens (Human), UniProt P43405); assay: SYK kinase assay (33P filtration, IC50 of SYK inhibition); conditions: read-out: ENZYME_FILTRATION_IC50; SYK 0.5 nM, ATP 20 μM, 33P filtration
Experimental: Determination of IC50 of Spleen Tyrosine Kinase (SYK) inhibition:
SYK kinase assay is a standard kinase assay adapted to a 96 well plate format. This assay is performed in 96-well format for IC50 determination with 8 samples which represented 10 half log dilutions and a 40 μL reaction volume. The assay measures the incorporation of radiolabeled ^33P γATP into an N-terminally biotinylated peptide substrate, derived from naturally occurring phosphoacceptor consensus sequence (Biotin-11aa DY*E). Phosphorylated products were detected upon termination of reactions with EDTA and the addition of Streptavidin coated beads.
BSA: Bovine Serum Albumin Fraction V, fatty acid free (Roche Diagnostics GmbH, Cat. No. 9100221) diluted to a final concentration of 0.1%
Assay Dilution Buffer (ADB): 50 mM HEPES, 0.1 mM EGTA, 0.1 mM Na Vanadate, 0.1 mM (3-glycerophosphate, 10 mM MgCl2, 1 mM DTT, 0.1% BSA, pH 7.5
Bead wash buffer: 10 g/L PBS (Phosphate buffered saline) with 2M NaCl+1% phosphoric acid.
DMSO and the mixture was incubated for 10 min at RT.
The kinase reaction was initiated by the addition of 10 μL 4× substrate cocktail containing the DYE peptide substrate [0 or 5 μM], ATP [20 μM] and ^33PγATP [2 μCi/r×n]. After incubation at 30° C. for 15 min, the reaction was terminated by the transfer of 25 μL of the reaction sample to a 96 well 0.65 μm Millipore MADVNOB membrane/plate containing 200 μL 5 mM EDTA and 20% Streptavidine coated beads in PBS.
The unbound radionucleotides were washed under vacuum with 3×250 μL 2M NaCl; 2×250 μL 2M NaCl+1% phosphoric acid; 1×250 μL H2O. After the last wash membrane/plates were transferred to an adaptor plate, heat dried for 15 min at 60° C., and 50 μL scintillation cocktail was added to each well and 4 h later the amount of radioactivity was counted in a top counter.

Cn1ccc(Nc2cnc3[nH]cc(C(=O)NC(C)(C)C)c3n2)n1 [Compound I-3, N-tert-butyl-2-(1-methyl-1H-pyrazol-3-ylamino)-5H-pyrrolo[2,3-b]pyrazine-7-carboxamide]
IC50 [1]: 146 nM
IC50 [2]: 204 nM
IC50 [3]: 21.1 nM

Cc1ccc(Nc2cnc3[nH]cc(C(=O)NC(C)C)c3n2)nc1 [Compound I-4, N-isopropyl-2-(5-methylpyridin-2-ylamino)-5H-pyrrolo[2,3-b]pyrazine-7-carboxamide]
IC50 [1]: 258 nM
IC50 [2]: 918 nM
IC50 [3]: 42.8 nM

Cn1cc(Nc2cnc3[nH]cc(C(=O)NC(C)(C)C)c3n2)cn1 [Compound I-5, N-tert-butyl-2-(1-methyl-1H-pyrazol-4-ylamino)-5H-pyrrolo[2,3-b]pyrazine-7-carboxamide]
IC50 [1]: 110 nM
IC50 [2]: 75.8 nM
IC50 [3]: 13.7 nM

Cc1ccc(Nc2cnc3[nH]cc(C(=O)NC(C)(C)C)c3n2)cn1 [Compound I-6, N-tert-butyl-2-(6-methylpyridin-3-ylamino)-5H-pyrrolo[2,3-b]pyrazine-7-carboxamide]
IC50 [1]: 115 nM
IC50 [2]: 430 nM
IC50 [3]: 17.1 nM

Cc1ncc(Nc2cnc3[nH]cc(C(=O)NC(C)(C)C)c3n2)cn1 [Compound I-7, N-tert-butyl-2-(2-methylpyrimidin-5-ylamino)-5H-pyrrolo[2,3-b]pyrazine-7-carboxamide]
IC50 [1]: 283 nM
IC50 [2]: 258 nM
IC50 [3]: 164 nM

Cc1cnc(Nc2cnc3[nH]cc(C(=O)NC(C)(C)C)c3n2)cn1 [Compound I-8, N-tert-butyl-2-(5-methylpyrazin-2-ylamino)-5H-pyrrolo[2,3-b]pyrazine-7-carboxamide]
IC50 [1]: 334 nM
IC50 [2]: 422 nM
IC50 [3]: 51.3 nM

Cc1cc(Nc2cnc3[nH]cc(C(=O)NC(C)(C)C)c3n2)[nH]n1 [Compound I-9, N-tert-butyl-2-(3-methyl-1H-pyrazol-5-ylamino)-5H-pyrrolo[2,3-b]pyrazine-7-carboxamide]
IC50 [1]: 93.1 nM
IC50 [2]: 343 nM
IC50 [3]: 15.5 nM

Cc1ccc(Nc2cnc3[nH]cc(C(=O)NC(C)(C)C)c3n2)cc1 [Compound I-12, N-tert-butyl-2-(p-tolylamino)-5H-pyrrolo[2,3-b]pyrazine-7-carboxamide]
IC50 [1]: 76.7 nM
IC50 [2]: 2160 nM
IC50 [3]: 3.2 nM

CC(C)(C)NC(=O)c1c[nH]c2ncc(Nc3cccc(S(C)(=O)=O)c3)nc12 [Compound I-13, N-tert-butyl-2-(3-(methylsulfonyl)phenylamino)-5H-pyrrolo[2,3-b]pyrazine-7-carboxamide]
IC50 [1]: 69 nM
IC50 [2]: 190 nM
IC50 [3]: 12.8 nM

CCn1cc(Nc2cnc3[nH]cc(C(=O)NC(C)(C)C)c3n2)cn1 [Compound I-14, N-tert-butyl-2-(1-ethyl-1H-pyrazol-4-ylamino)-5H-pyrrolo[2,3-b]pyrazine-7-carboxamide]
IC50 [1]: 101 nM
IC50 [2]: 184 nM
IC50 [3]: 35.9 nM

Cc1c(Nc2cnc3[nH]cc(C(=O)NC(C)(C)C)c3n2)cnn1C [Compound I-16, N-tert-butyl-2-(1,5-dimethyl-1H-pyrazol-4-ylamino)-5H-pyrrolo[2,3-b]pyrazine-7-carboxamide]
IC50 [1]: 168 nM
IC50 [2]: 375 nM
IC50 [3]: 92.4 nM

Cn1cc(Nc2cnc3[nH]cc(C(=O)NC(C)(C)CO)c3n2)cn1 [Compound I-17, N-(1-hydroxy-2-methylpropan-2-yl)-2-(1-methyl-1H-pyrazol-4-ylamino)-5H-pyrrolo[2,3-b]pyrazine-7-carboxamide]
IC50 [1]: 207 nM
IC50 [2]: 193 nM
IC50 [3]: 49.9 nM

Cc1cc(Nc2cnc3[nH]cc(C(=O)NC(C)(C)C)c3n2)sn1 [Compound I-18, N-tert-butyl-2-(3-methylisothiazol-5-ylamino)-5H-pyrrolo[2,3-b]pyrazine-7-carboxamide]
IC50 [1]: 78.9 nM
IC50 [2]: 125 nM
IC50 [3]: 2 nM

CC(C)(C)NC(=O)c1c[nH]c2ncc(Nc3ccc(S(C)(=O)=O)cc3)nc12 [Compound I-20, N-tert-butyl-2-(4-(methylsulfonyl)phenylamino)-5H-pyrrolo[2,3-b]pyrazine-7-carboxamide]
IC50 [1]: 338 nM
IC50 [2]: 506 nM
IC50 [3]: 30 nM

CN(c1cccnc1)c1cnc2[nH]cc(C(=O)NC(C)(C)C)c2n1 [Compound I-21, N-tert-butyl-2-(methyl(pyridin-3-yl)amino)-5H-pyrrolo[2,3-b]pyrazine-7-carboxamide]
IC50 [1]: 4800 nM
IC50 [2]: > 50000 nM
IC50 [3]: 1900 nM

Cc1cc(Nc2cnc3[nH]cc(C(=O)NC(C)(C)C)c3n2)on1 [Compound I-22, N-tert-butyl-2-(3-methylisoxazol-5-ylamino)-5H-pyrrolo[2,3-b]pyrazine-7-carboxamide]
IC50 [1]: 79.7 nM
IC50 [2]: 1340 nM
IC50 [3]: 25.1 nM

CC(C)(C)NC(=O)c1c[nH]c2ncc(Nc3ccc(S(C)(=O)=O)nc3)nc12 [Compound I-23, N-tert-butyl-2-(6-(methylsulfonyl)pyridin-3-ylamino)-5H-pyrrolo[2,3-b]pyrazine-7-carboxamide]
IC50 [1]: 3620 nM
IC50 [2]: 630 nM
IC50 [3]: 117 nM

CC(O)c1cccc(Nc2cnc3[nH]cc(C(=O)NC(C)(C)C)c3n2)c1 (stereo not drawn) [Compound I-24, N-tert-butyl-2-(3-(1-hydroxyethyl)phenylamino)-5H-pyrrolo[2,3-b]pyrazine-7-carboxamide]
IC50 [1]: 93.3 nM
IC50 [2]: 418 nM
IC50 [3]: 5.9 nM

COc1ncc(Nc2cnc3[nH]cc(C(=O)NC(C)(C)C)c3n2)cn1 [Compound I-25, N-tert-butyl-2-(2-methoxypyrimidin-5-ylamino)-5H-pyrrolo[2,3-b]pyrazine-7-carboxamide]
IC50 [1]: 213 nM
IC50 [2]: 433 nM
IC50 [3]: 71.2 nM

CC(N)c1cccc(Nc2cnc3[nH]cc(C(=O)NC(C)(C)C)c3n2)c1 (stereo not drawn) [Compound I-27, 2-(3-(1-aminoethyl)phenylamino)-N-tert-butyl-5H-pyrrolo[2,3-b]pyrazine-7-carboxamide]
IC50 [1]: 223 nM
IC50 [2]: 631 nM
IC50 [3]: 18.8 nM

Cc1nn(C)cc1Nc1cnc2[nH]cc(C(=O)NC(C)(C)C)c2n1 [Compound I-30, N-tert-butyl-2-(1,3-dimethyl-1H-pyrazol-4-ylamino)-5H-pyrrolo[2,3-b]pyrazine-7-carboxamide]
IC50 [1]: 278 nM
IC50 [2]: 268 nM
IC50 [3]: 97.5 nM

Cn1cc2c(n1)CCCN2c1cnc2[nH]cc(C(=O)NC(C)(C)C)c2n1 [Compound I-32, N-tert-butyl-2-(2-methyl-6,7-dihydro-2H-pyrazolo[4,3-b]pyridin-4(5H)-yl)-5H-pyrrolo[2,3-b]pyrazine-7-carboxamide]
IC50 [1]: 275 nM
IC50 [2]: 1140 nM
IC50 [3]: 43.7 nM

Cn1ncc2c1CCCN2c1cnc2[nH]cc(C(=O)NC(C)(C)C)c2n1 [Compound I-33, N-tert-butyl-2-(1-methyl-6,7-dihydro-1H-pyrazolo[4,3-b]pyridin-4(5H)-yl)-5H-pyrrolo[2,3-b]pyrazine-7-carboxamide]
IC50 [1]: 791 nM
IC50 [2]: 1460 nM
IC50 [3]: 167 nM

Cc1cc(Nc2nc3c(C(=O)NC(C)(C)C)c[nH]c3nc2C)sn1 [Compound I-36, 3-Methyl-2-(3-methyl-isothiazol-5-ylamino)-5H-pyrrolo[2,3-b]pyrazine-7-carboxylic acid tert-butylamide]
IC50 [1]: 1250 nM
IC50 [2]: 8300 nM
IC50 [3]: 251 nM
